Measured values as given in patent US20240294572A1, “Antimicrobial Peptides” (priority 2021, published 2024).
≈ marks a conversion by molar mass, not a printed value. Like-named read-outs stand apart in the source and are kept apart here. Non-standard residues stand in square brackets, D forms with d. Residues, ends and D or L forms follow the SMILES beside them. *: point of attachment. Decanoyl = CCCCCCCCCC(=O)*

Experiments:
E. coli ATCC 25922 = type: cell-based
In short: (§1)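 Broth microdilution after CLSI M07-A10, modified: 2-fold peptide dilutions plus log-phase bacteria diluted to 0.001 OD, incubated overnight at 37° C, absorbance read at 630 nm. Medium effects probed with varied pH, NaCl or human serum in TSB (control pH 7.4), with 10%, 50%, 100% TSB, and with MHB.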

S. aureus USA300 LAC = type: cell-based
In short: as §1

[1] = test system: trypsin, chymotrypsin, pancreas elastase, S. aureus V8 protease, and fungal proteinase K
Method: The peptide was incubated with various proteases in 10 mM PBS buffer (pH 7.4) at 37° C. for 24 hours. Aliquots (20 μL) of the reaction solutions were taken at 3 and 24 hours. The reaction was then stopped by mixing with 20 μL of 2×SDS loading buffer and boiling in a water bath for ˜10 minutes. For the SDS-PAGE analysis, 10 μL of each sample was loaded to the well of a 5% stacking/18% resolving tricine gel and run at a constant current of 35 mA. The gels were stained using Coomassie Brilliant Blue.

S. aureus Newman = type: cell-based
In short: (§2)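 Broth microdilution per CLSI M07-A10 with minor changes: 2-fold peptide dilutions plus log-phase bacteria (OD600 ~0.5) diluted to 0.001 OD, in TSB. Incubated overnight at 37 °C; growth read at 630 nm.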

P. aeruginosa PAO1 = type: cell-based
In short: as §2

S. aureus USA400 = type: cell-based
In short: as §2

S. aureus Mu50 = type: cell-based
In short: as §2

[2] = test system: clinical strains of S. aureus, including USA200, USA400, Newman, and Mu50; type: cell-based
In short: as §2

S. aureus USA200 = type: cell-based
In short: as §2

[3] = test system: human red blood cells (hRBCs); type: cell-based
In short: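 Saline-washed human erythrocytes at 2% (v/v) incubated with peptides at various concentrations, 37° C, 1 hour. Haemoglobin release read at 545 nm in supernatant after centrifugation; 1% Triton X-100 = 100% lysis, PBS = 0%. HC50 is the peptide concentration giving 50% lysis; CSI = HC50/MIC against MRSA.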

[4] = test system: Klebsiella pneumonia ATCC 13883; assay: Antibacterial broth microdilution MIC; type: cell-based
In short: as §2

[5] = test system: S. aureus USA300 transposon mutant SAUSA300_1865 (vraR); assay: Antimicrobial susceptibility of transposon mutant; type: cell-based; settings: mutant SAUSA300_1865 vraR versus WT
Method: (§3) The antimicrobial susceptibility of over 20 MRSA transposon mutants were also tested, based on a transposon library screening, in the presence of LL-37 peptides (Golla, et al. (2020) ACS Infect. Dis., 6:1866-1881). This Nebraska Transposon Mutant Library of S. aureus USA300 consists of 1920 mutants, each with one nonessential gene disabled due to a transposon insertion (Fey, et al. (2013) mBio 4:e00537-12). The correct insertion of the transposon to each Staph mutant had been verified (Golla, et al. (2020) ACS Infect. Dis., 6:1866-1881). Antimicrobial susceptibility to the new peptide C10-KR8d was evaluated in the same manner as MIC assays. Susceptible strains could be inhibited at a peptide concentration lower than the MIC against the wild strain S. aureus JE2.

[6] = test system: S. aureus USA300 transposon mutant SAUSA300_0988 (trkA); assay: Antimicrobial susceptibility of transposon mutant; type: cell-based; settings: mutant SAUSA300_0988 trkA versus WT
Method: as §3

[7] = test system: S. aureus USA300 transposon mutant SAUSA300_1037 (pheS); assay: Antimicrobial susceptibility of transposon mutant; type: cell-based; settings: mutant SAUSA300_1037 pheS versus WT
Method: as §3

[8] = test system: S. aureus USA300 transposon mutant SAUSA300_0645 (graR); assay: Antimicrobial susceptibility of transposon mutant; type: cell-based; settings: mutant SAUSA300_0645 graR versus WT
Method: as §3

[9] = test system: S. aureus USA300 transposon mutant SAUSA300_1255 (mprF); assay: Antimicrobial susceptibility of transposon mutant; type: cell-based; settings: mutant SAUSA300_1255 mprF versus WT
Method: as §3

[10] = test system: S. aureus USA300 transposon mutant SAUSA300_1089 (lspA); assay: Antimicrobial susceptibility of transposon mutant; type: cell-based; settings: mutant SAUSA300_1089 lspA versus WT
Method: as §3

[11] = test system: S. aureus USA300 transposon mutant SAUSA300_0646 (graS); assay: Antimicrobial susceptibility of transposon mutant; type: cell-based; settings: mutant SAUSA300_0646 graS versus WT
Method: as §3

CCCCCCCCCC(=O)N[C@@H](CCCCN)C(=O)N[C@@H](CCCNC(=N)N)C(=O)N[C@H](C(=O)N[C@@H](Cc1c[nH]c2ccccc12)C(=O)N[C@@H](CCC(N)=O)C(=O)N[C@@H](CCCNC(=N)N)C(=O)N[C@H](C(=O)N[C@@H](CCCCN)C(N)=O)[C@@H](C)CC)[C@@H](C)CC [Peptide C10-KR8] (Decanoyl-KRIWQRIK-NH2)
MIC (μM) EC (E. coli ATCC 25922): 12.5 µM (≈ 16 µg/mL) | MIC in the presence of 5 or 10% human serum (S. aureus USA300 LAC; 5 or 10% human serum): > 25 µM | MIC (μM) SA (S. aureus USA300 LAC; USA300): 1.5 to 3.1 µM | Minimal inhibitory concentration (MIC), pH = 6.8 (S. aureus USA300 LAC; USA300, pH 6.8): 3.1-6.2 μM | time to degradation by proteases ([1]; nearly all the cases, except for S. aureus V8 protease, 37° C., PBS pH 7.4): ≤ 3 h | Minimal inhibitory concentration, Newman (S. aureus Newman): 3.1 µM (≈ 3.97 µg/mL) | MIC (μM) PA (P. aeruginosa PAO1): 6.2 µM (≈ 7.94 µg/mL) | Minimal inhibitory concentration, USA400 (S. aureus USA400): 3.1 µM (≈ 3.97 µg/mL) | Minimal inhibitory concentration, Mu50 (S. aureus Mu50): 3.1 µM (≈ 3.97 µg/mL) | MIC against clinical strains of S. aureus [2]: 1.6 to 6.2 µM | Minimal inhibitory concentration, USA200 (S. aureus USA200): 3.1 µM (≈ 3.97 µg/mL) | HC50 [3]: 300 µM | MIC (μM) KP [4]: 50 µM (≈ 64 µg/mL)

CCCCCCCCCC(=O)N[C@H](CCCCN)C(=O)N[C@H](CCCNC(=N)N)C(=O)N[C@@H](C(=O)N[C@H](Cc1c[nH]c2ccccc12)C(=O)N[C@H](CCC(N)=O)C(=O)N[C@H](CCCNC(=N)N)C(=O)N[C@@H](C(=O)N[C@H](CCCCN)C(N)=O)[C@H](C)CC)[C@H](C)CC [Peptide C10-KR8d] (Decanoyl-[dK][dR][dI][dW][dQ][dR][dI][dK]-NH2)
MIC (μM) EC (E. coli ATCC 25922): 12.5 µM (≈ 16 µg/mL) | Minimal inhibitory concentration against E. coli, 100% TSB (E. coli ATCC 25922): 6.2 µM (≈ 7.94 µg/mL) | reduction of anti-MRSA activity (S. aureus USA300 LAC; 10% serum, pH 7.4): 2 fold | MIC (μM) SA (S. aureus USA300 LAC; USA300): 1.5 to 3.1 µM | MIC values (Table 4, text summary) (S. aureus USA300 LAC; USA300): 3.1 to 6.2 µM | stability to five proteases ([1]; trypsin, chymotrypsin, pancreas elastase, S. aureus V8 protease, fungal proteinase K, 3 and 24 hours): resistant to the five proteases | Minimal inhibitory concentration, Newman (S. aureus Newman): 1.6 µM (≈ 2.05 µg/mL) | Minimal inhibitory concentration, USA400 (S. aureus USA400): 1.6 µM (≈ 2.05 µg/mL) | Minimal inhibitory concentration, Mu50 (S. aureus Mu50): 3.1 µM (≈ 3.97 µg/mL) | Minimal inhibitory concentration, USA200 (S. aureus USA200): 1.6 µM (≈ 2.05 µg/mL) | Susceptible? [5]: Yes | Susceptible? [6]: Yes | Susceptible? [7]: Yes | Susceptible? [8]: Yes | Susceptible? [9]: Yes | Susceptible? [10]: Yes | Susceptible? [11]: Yes | HC50 ([3]; red cells of human, 1 h): 300 µM | MIC (μM) KP [4]: 25 µM (≈ 32 µg/mL)
